In patent US20120195842A1, “ENHANCED PHOTOSTABILITY OF SUNCARE CO[…]” (priority 2008, published 2012):

Experiment: Photostability of avobenzone in thin films of sunscreen compositions irradiated with solar simulated UVR
Type: physicochemical
Details: menthyl anthranilate at all levels, composition with octisalate, homosalate and avobenzone, up to 4 hours
Method: To investigate its stabilizing effect of menthyl anthranilate on the photostability of avobenzone, menthyl anthranilate (meradimate) was incorporated into a fixed sunscreen composition at different levels. Thin film strips of each composition were then irradiated with solar simulated UVR for up to 4 hours as described in detail below. The compositions were then analyzed for the presence of avobenzone after a given period of time. • Formula compositions were prepared as follows: […]
Assessment of avobenzone's photostability was performed on four different compositions that differed only in the amount of menthyl anthranilate that were used in the formulation.
The photostability of avobenzone in each emulsion was assessed after exposure to 80 joules of UV radiation (which corresponds to about 4 hours of outside sun exposure at noon in Memphis, Tenn. in June) using the method described below. […] Even 1% menthyl anthranilate improved avobenzone's photostability by approximately 6% after 2 hours and by 17% after 4 hours of exposure. […]
Avobenzone's photostability was assessed by spreading known weights (14-18 mg) of emulsions onto glass microscope slides at an application density of about 2 mg/cm^2. […] UVR flux was measured using an OL 754 Spectroradiometer (Optronics laboratories, Inc., Orlando, Fla.) with an 8 inch integrating sphere. […]

## CC1CCC(C(C)C)C(OC(=O)c2ccccc2N)C1 (stereo not shown) [menthyl anthranilate]
  effect on photostability of avobenzone to ultraviolet radiation (UVR): improves photostability of avobenzone
